Laboratory results from patent US20230233555A1 (AbbVie Inc., priority 2022, published 2023).
Entries after “also recorded” stand apart in the source; their conditions may differ.

Legend:
P-gp, BCRP = assay: In vitro transporter substrate assessment, P-gp and BCRP; assay type: in vitro ADME
[1] = test system: CYP1A2, 2B6, 2C8, 2C9, 2C18, 2C19, 2J2, FMO1, FMO3, OATP1B1, OATP1B3, OCT1; assay: In vitro substrate assessment, other enzymes and transporters; assay type: in vitro ADME
[2] = test system: patients with moderately to severely active rheumatoid arthritis, inadequate response to MTX; assay: Trial RA-II (NCT02706951); assay type: in vivo, human; conditions: RA-II through Week 14; 30 mg monotherapy
Text: The primary endpoint was the proportion of patients who achieved an ACR20 response at Week 14. Key secondary endpoints included DAS28-CRP ≤3.2, DAS28-CRP <2.6, and change from baseline in HAQ-DI at Week 14.

[3] = test system: patients with moderately to severely active rheumatoid arthritis, naive to MTX; assay: Trial RA-I (NCT02706873); assay type: in vivo, human; conditions: RA-I through Week 24; 30 mg
Experimental: The primary endpoint was the proportion of patients who achieved an ACR50 response at Week 12. Key secondary endpoints included disease activity score (DAS28-CRP) ≤3.2 at Week 12, DAS28-CRP <2.6 at Week 24, change from baseline in HAQ-DI at Week 12, and change from baseline in van der Heijde-modified total Sharp Score (mTSS) at Week 24.
Inhibition of progression of structural joint damage was assessed using the modified Total Sharp Score (mTSS) and its components, the erosion score and joint space narrowing score, at Week 26 in Trial RA-IV and Week 24 in Trial RA-I. The proportion of patients with no radiographic progression (mTSS change from baseline […]) was also assessed.

[4] = Milk excretion in lactating rats; assay type: in vivo, rat; conditions: female, Sprague-Dawley, rat, milk (relative to maternal plasma); single oral 10 mg/kg radiolabeled, post-partum days 7-8; read-out: Drug exposure in milk vs maternal plasma (AUC0-t)
Text: (§1) Drug exposure was approximately 30-fold greater in milk than in maternal plasma based on AUC0-t values. Approximately 97% of drug-related material in milk was parent drug.

[5] = test system: lactating female Sprague-Dawley rats; assay: Milk excretion in lactating rats; assay type: in vivo, rat; conditions: single oral 10 mg/kg radiolabeled
Text: as §1

clinical = conditions: human, in vivo
CYP2D6 = CYP2D6 (Homo sapiens, UniProt P10635); assay: In vitro metabolism / substrate assessment, CYP2D6; assay type: in vitro ADME
Chain of CYP2D6 (P10635 whole entry): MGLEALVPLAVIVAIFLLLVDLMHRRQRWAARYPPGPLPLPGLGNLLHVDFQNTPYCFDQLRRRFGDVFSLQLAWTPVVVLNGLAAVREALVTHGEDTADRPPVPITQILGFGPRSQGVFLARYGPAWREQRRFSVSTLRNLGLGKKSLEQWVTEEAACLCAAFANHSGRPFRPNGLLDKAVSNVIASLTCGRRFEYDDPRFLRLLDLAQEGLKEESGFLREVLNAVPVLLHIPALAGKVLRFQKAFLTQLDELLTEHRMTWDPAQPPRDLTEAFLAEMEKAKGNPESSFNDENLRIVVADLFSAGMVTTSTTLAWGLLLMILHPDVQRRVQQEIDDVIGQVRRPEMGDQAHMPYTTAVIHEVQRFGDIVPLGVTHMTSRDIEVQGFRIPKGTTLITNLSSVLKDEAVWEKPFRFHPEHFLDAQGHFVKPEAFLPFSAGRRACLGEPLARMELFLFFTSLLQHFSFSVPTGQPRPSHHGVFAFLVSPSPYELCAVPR

CYP3A4 = CYP3A4 (Homo sapiens, UniProt P08684); assay: In vitro metabolism / substrate assessment, CYP3A4; assay type: in vitro ADME
Chain of CYP3A4 (P08684 whole entry): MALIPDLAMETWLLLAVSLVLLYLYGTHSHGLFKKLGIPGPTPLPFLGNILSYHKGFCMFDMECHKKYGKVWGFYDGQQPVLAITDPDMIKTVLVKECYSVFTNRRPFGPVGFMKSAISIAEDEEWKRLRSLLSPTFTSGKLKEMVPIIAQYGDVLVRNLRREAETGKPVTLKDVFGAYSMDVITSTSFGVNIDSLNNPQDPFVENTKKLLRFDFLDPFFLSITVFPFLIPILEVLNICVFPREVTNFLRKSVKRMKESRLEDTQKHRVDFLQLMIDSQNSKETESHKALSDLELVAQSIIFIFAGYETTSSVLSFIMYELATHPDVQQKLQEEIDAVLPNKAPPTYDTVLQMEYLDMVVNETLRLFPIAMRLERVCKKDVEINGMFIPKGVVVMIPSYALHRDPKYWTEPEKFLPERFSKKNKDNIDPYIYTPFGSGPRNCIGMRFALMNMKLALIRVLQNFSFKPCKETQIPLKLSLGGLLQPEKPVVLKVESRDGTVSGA

[6] = test system: P-gp, BCRP, BSEP, OATP1B1, OATP1B3, OCT1, OCT2, OAT1, OAT3, MATE1, MATE2K; assay: In vitro transporter inhibition; assay type: in vitro ADME; conditions: clinically relevant concentrations
[7] = test system: patients with rheumatoid arthritis; assay: Rheumatoid arthritis Phase 3 trials, integrated datasets (RA-I to RA-V)
Text: (§2) Exposure adjusted incidence rates were adjusted by trial for all the adverse events reported in this section.
(§3) Patients 18 years of age and older were eligible to participate. The presence of at least 6 tender and 6 swollen joints and evidence of systemic inflammation based on elevation of hsCRP was required at baseline.

Solubility in water = assay type: physicochemical; conditions: aqueous buffer, pH range of 2 to 9 at 37° C.
Text: The strength of upadacitinib is based on anhydrous upadacitinib. […]

[8] = Hepatic impairment pharmacokinetic study; assay type: in vivo, human
Tg.rasH2 mice = assay: Carcinogenicity study in Tg.rasH2 mice; assay type: in vivo, mouse; conditions: 26 weeks, oral up to 20 mg/kg/day
[9] = test system: patients with rheumatoid arthritis; conditions: in vivo
Text: as §2, §3

CYP3A4, CYP2B6, CYP1A2 = assay: In vitro CYP induction; assay type: in vitro ADME
rat bone marrow = assay: In vivo rat bone marrow micronucleus assay
[10] = test system: IL-6 (JAK1/JAK2)-induced STAT3 and IL-7 (JAK1/JAK3)-induced STAT5 phosphorylation; assay: IL-6 induced STAT3 and IL-7 induced STAT5 phosphorylation in whole blood of healthy volunteers; assay type: in vivo, human; conditions: immediate release formulation
Experimental: The maximal inhibition was observed 1 hour after dosing which returned to near baseline by the end of dosing interval.

[11] = Drug interaction studies: effect of co-administered drugs on upadacitinib pharmacokinetics (incl. Study M13-401); assay type: in vivo, human
Text: The data from Study M13-401 are provided in Table 38 and Table 39, which show the expected increase in Cmax and AUCss, respectively, in patients with UC across all dose levels with co-administration of CYP3A4 inhibitors.

[12] = Model-estimated and predicted upadacitinib Cmax and AUCss in UC patients with severe renal impairment; set-up: species or system human; conditions: for Predicted Cmax in UC Patients with Severe Renal Impairment based on results from M13-551, Median: model-estimated value multiplied by 1.14; for Predicted AUCss in UC Patients with Severe Renal Impairment based on results from M13-551, Median: model-estimated value multiplied by 1.44
Experimental: Therefore, it is recommended that the induction dose is reduced in UC patients with severe renal impairment to 30 mg QD.
Therefore, it is recommended that the maintenance dose is reduced in UC patients with severe renal impairment to 15 mg QD.

pregnant rabbits = assay: Oral embryo-fetal developmental study in rabbits; assay type: in vivo
[13] = 12-month exposure dataset (RA-I, II, III, V), 30 mg
[14] = MTX-controlled RA-I and RA-II, 12/14 weeks, 30 mg monotherapy
[15] = RA-III and RA-V placebo-controlled, 12 weeks, 30 mg
[16] = e.g. ketoconazole, Study M13-401
[17] = ketoconazole 400 mg QD, upadacitinib IR formulation
[18] = rifampicin 600 mg QD for 8 days

SMILES: CC[C@@H]1CN(C(=O)NCC(F)(F)F)C[C@@H]1c1cnc2cnc3[nH]ccc3n12 [upadacitinib, (3S,4R)-3-Ethyl-4-(3H-imidazo[1,2-a]pyrrolo[2,3-e]pyrazin-8-yl)-N-(2,2,2-trifluoroethyl)pyrrolidine-1-carboxamide hydrate (2:1)]
- Substrate of P-gp and BCRP (P-gp, BCRP): substrate
- Substrate of CYP1A2, 2B6, 2C8, 2C9, 2C18, 2C19, 2J2, FMO1, FMO3, OATP1B1, OATP1B3 or OCT1 [1]: not a substrate
- Venous thrombosis, number of patients [2]: 0 patients
- Arterial thrombosis, number of patients [3]: 1 patient
- Venous thrombosis, number of patients [3]: 1 patient
- Kp [4]: ~30
- Parent drug share of drug-related material in milk [5]: Approximately 97%
- half-life (clinical): 8 to 14 h
- Tmax (clinical; po): 2 to 4 h
- Substrate of / metabolised by CYP2D6 (CYP2D6): substrate; also recorded: potential minor contribution from CYP2D6
- Substrate of / metabolised by CYP3A4 (CYP3A4): substrate; also recorded: mediated by mainly CYP3A4; also recorded: metabolized in vitro by CYP3A4
- Inhibition of transporters (P-gp, BCRP, OATP1B1, OATP1B3, OCT1, OCT2, OAT1, OAT3, MATE1, MATE2K) [6]: does not inhibit; also recorded: no in vivo relevant inhibition
- Opportunistic infections (excluding tuberculosis), number of patients [7, 13]: 15 patients
- Opportunistic infections (excluding tuberculosis), rate [7, 13]: 1.4 per 100 patient-years
- Active tuberculosis, number of patients ([7]; 12-month exposure dataset, 30 mg): 1 patient
- Opportunistic infections (excluding tuberculosis), number of patients [7, 14]: 4 patients
- Opportunistic infections (excluding tuberculosis), rate [7, 14]: 3.2 per 100 patient-years
- Active tuberculosis cases ([7]; RA MTX-controlled period, 30 mg monotherapy): no active cases
- Change in mean IgG and IgM levels from baseline ([7]; RA patients, controlled period): small decreases
- Change in mean ALC from baseline ([7]; RA patients, up to Week 36): small, transient increase
- Active tuberculosis cases ([7]; RA placebo-controlled period, 30 mg): no active cases
- Opportunistic infections (excluding tuberculosis), number of patients [7, 15]: 6 patients
- Opportunistic infections (excluding tuberculosis), rate [7, 15]: 7.1 per 100 patient-years
- solubility (Solubility in water): ≤ 38 mg/mL
- Cmax vs normal liver function ([8]; mild hepatic impairment): unchanged
- AUC (AUCinf) higher vs normal hepatic function ([8]; mild hepatic impairment (Child-Pugh A)): 28%
- Cmax higher vs normal liver function ([8]; moderate hepatic impairment): 43%
- AUC (AUCinf) higher vs normal hepatic function ([8]; moderate hepatic impairment (Child-Pugh B)): 24%
- Tumorigenicity (Tg.rasH2 mice): No evidence of tumorigenicity
- Hemoglobin decreases below 8 g/dL in at least one measurement, patients [9]: none
- Lipid changes with treatment [9]: dose-related increases in total cholesterol, triglycerides and LDL cholesterol
- Time of peak elevations in LDL and HDL cholesterol [9]: ≤ 8 Week
- Induction of CYP1A2 (CYP3A4, CYP2B6, CYP1A2): borderline
- Induction of CYP3A4 and CYP2B6 (CYP3A4, CYP2B6, CYP1A2): inducer
- Genotoxicity, bone marrow micronucleus (rat bone marrow): tested negatively
- Inhibition of IL-6-induced STAT3 and IL-7-induced STAT5 phosphorylation in whole blood [10]: dose- and concentration-dependent inhibition
- Time of maximal inhibition after dosing [10]: 1 h
- Upadacitinib exposure with methotrexate ([11]; co-administration with methotrexate): no effect
- Upadacitinib plasma exposure with strong CYP2D6 inhibitors, OATP1B inhibitors, MTX, pH modifying medications or statins ([11]; concomitant administration): no effect
- Upadacitinib AUC (AUCinf) increase with strong CYP3A4 inhibitor [11, 16]: 75%
- Upadacitinib Cmax increase with strong CYP3A4 inhibitor [11, 16]: 70%
- Upadacitinib half-life with ketoconazole ([11]; ketoconazole 400 mg QD): no effect on half-life
- Upadacitinib AUC increase with ketoconazole [11, 17]: 1.8 fold
- Upadacitinib Cmax increase with ketoconazole [11, 17]: 1.7 fold
- Upadacitinib AUC decrease with rifampicin [11, 18]: 60%
- Upadacitinib Cmax decrease with rifampicin [11, 18]: 50%
- Predicted Cmax in UC Patients with Severe Renal Impairment based on results from M13-551, Median ([12]; 7.5 mg treatment group): 23.0 ng/mL
- Predicted AUCss in UC Patients with Severe Renal Impairment based on results from M13-551, Median ([12]; 7.5 mg treatment group): 232 ng·h/mL
- Predicted Cmax in UC Patients with Severe Renal Impairment based on results from M13-551, Median ([12]; 15 mg treatment group): 47.1 ng/mL
- Predicted AUCss in UC Patients with Severe Renal Impairment based on results from M13-551, Median ([12]; 15 mg treatment group): 492 ng·h/mL
- Predicted Cmax in UC Patients with Severe Renal Impairment based on results from M13-551, Median ([12]; 30 mg treatment group): 89.5 ng/mL
- Predicted AUCss in UC Patients with Severe Renal Impairment based on results from M13-551, Median ([12]; 30 mg treatment group): 940 ng·h/mL
- Predicted Cmax in UC Patients with Severe Renal Impairment based on results from M13-551, Median ([12]; 45 mg treatment group): 138 ng/mL
- Predicted AUCss in UC Patients with Severe Renal Impairment based on results from M13-551, Median ([12]; 45 mg treatment group): 1431 ng·h/mL
- Exposure multiple with developmental toxicity (cardiovascular malformations, post-implantation loss, decreased fetal body weights) (pregnant rabbits): ≥ 17 times the 15 mg dose
- Exposure multiple with no developmental toxicity (pregnant rabbits; organogenesis): ~2.5 times the 15 mg dose
